The target in the test is T1, P2X7 receptor (Homo sapiens, UniProt Q99572).
T1 construct: endogenous in cells; host or cells: THP-1 cells differentiated with LPS and IFN-γ
T1 sequence (Q99572 1-595): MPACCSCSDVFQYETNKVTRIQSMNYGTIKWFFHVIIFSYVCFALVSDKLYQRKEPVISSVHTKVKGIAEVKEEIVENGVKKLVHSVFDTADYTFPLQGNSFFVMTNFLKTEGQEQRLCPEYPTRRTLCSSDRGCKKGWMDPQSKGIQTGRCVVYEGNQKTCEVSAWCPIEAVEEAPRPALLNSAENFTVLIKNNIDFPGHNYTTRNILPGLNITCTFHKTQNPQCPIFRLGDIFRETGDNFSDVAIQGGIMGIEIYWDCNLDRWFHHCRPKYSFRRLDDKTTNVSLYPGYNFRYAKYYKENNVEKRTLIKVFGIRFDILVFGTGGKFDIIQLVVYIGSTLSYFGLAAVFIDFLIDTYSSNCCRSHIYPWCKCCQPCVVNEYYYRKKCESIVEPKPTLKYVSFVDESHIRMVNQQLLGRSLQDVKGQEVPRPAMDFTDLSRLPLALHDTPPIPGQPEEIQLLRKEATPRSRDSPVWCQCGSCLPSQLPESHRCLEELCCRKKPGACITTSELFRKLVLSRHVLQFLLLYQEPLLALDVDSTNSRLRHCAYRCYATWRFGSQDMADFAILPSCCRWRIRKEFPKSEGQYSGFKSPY
In words: IL-1β release assay in differentiated THP-1 cells stimulated with BzATP (Example 9). Conditions: for inhibition at 0.3 µM: 0.3 μM concentration; for inhibition at 0.3 µM / inhibition at 0.1 µM: read-out: IL-1β % Inhib. @ 0.3 or 0.1 μM; for IC50: four parameter logistic fit, read-out: IL-1β IC50; for inhibition at 0.1 µM: 0.1 μM concentration. The format is cell-based. Put shortly:
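Differentiated THP-1 cells pretreated 30 min with compound, then stimulated with BzATP. Released IL-1β in supernatant measured by ELISA; background-adjusted percent inhibition fitted to four-parameter logistic for IC50.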

A value given as a limit tells only on which side of the number the result lay.

Regarding `Cc1ncccc1-n1ccc2c(NC(=O)Cc3ccc(Cl)c(Cl)c3)cccc2c1=O` [ID 869], the inhibition at 0.3 µM is more than 76% and the IC50 is 43.9 nM.

Regarding `O=C(Cc1ccc(C(F)(F)F)cc1)Nc1cccc2c(=O)n(C3CCC3)ccc12` [ID 891], the inhibition at 0.3 µM lay in the range of 51 to 75% and the IC50 is 283 nM.

In the case of `Cc1ccc(Oc2ncccc2-n2ccc3c(NC(=O)CC45CC6CC(CC(C6)C4)C5)cccc3c2=O)c2c1CCC2` [ID 708], the inhibition at 0.3 µM is more than 76% and the IC50 is 26.2 nM.

As to `O=C(CC1CCCCCC1)Nc1cccc2c(=O)n([C@H]3CCNC3)ccc12` [ID 824], the inhibition at 0.3 µM is more than 76% and the IC50 turned out to be 3.2 nM.

Take `C[C@H](C(=O)Nc1cccc2c(=O)n([C@H]3CCNC3)ccc12)c1ccc(Cl)c(Cl)c1` [ID 832]: the inhibition at 0.3 µM is more than 76% and the IC50 was determined as 73.6 nM.

Consider `COc1ccc(CC(=O)Nc2cccc3c(=O)n(-c4cc(C)on4)ccc23)cc1` [ID 732], for which the inhibition at 0.1 µM was 0 to 25%.

In the case of `CC12CC3CC(C)(C1)CC(CC(=O)Nc1cccc4c(=O)n(-c5cccnc5)ccc14)(C3)C2` [ID 701], the inhibition at 0.3 µM is more than 76% and the IC50 turned out to be 3.22 nM.

As to `Cc1cc(-n2ccc3c(NC(=O)c4cc5ccccc5o4)cccc3c2=O)no1` [ID 734], the inhibition at 0.1 µM is 0 to 25%.

In the case of `O=C(CC12CC3CC(CC(C3)C1)C2)Nc1cccc2c(=O)n(-c3cc[nH]n3)ccc12` [ID 841], the inhibition at 0.3 µM was more than 76% and the 50% inhibitory concentration (IC50) was 0.295 nM.

Consider `CCOC(=O)N1CCC(n2ccc3c(NC(=O)c4cc(Cl)cc(Cl)c4)cccc3c2=O)CC1` [ID 768], for which the inhibition at 0.1 µM lay within 0 to 25%.

`CCOC(=O)N1CCC(n2ccc3c(NC(=O)c4ccc5c(c4)OCCCO5)cccc3c2=O)CC1` [ID 799]: the inhibition at 0.1 µM is 0 to 25%.

As to `Cc1ncccc1-n1ccc2c(NC(=O)Cc3cc(F)c(F)c(F)c3)cccc2c1=O` [ID 866], the inhibition at 0.3 µM was in the range of 51 to 75% and the IC50 worked out at 98.5 nM.

For the molecule `COc1ccc(CC(=O)Nc2cccc3c(=O)n(-c4cc(C)on4)ccc23)c(OC)c1` [ID 739], the inhibition at 0.1 µM lay within 0 to 25%.

`CC(C(=O)Nc1cccc2c(=O)n([C@H]3CCNC3)ccc12)c1ccc(Cl)cc1` (stereo partly drawn) [ID 823]: the inhibition at 0.3 µM is more than 76% and the IC50 came to 42.5 nM.

For the molecule `CCOC(=O)N1CCC(n2ccc3c(NC(=O)c4cc(Cl)ccc4Cl)cccc3c2=O)CC1` [ID 763], the inhibition at 0.1 µM was in the range of 0 to 25%.

As to `O=C(Cc1ccc(Cl)cc1F)Nc1cccc2c(=O)n(C3CN4CCC3CC4)ccc12` (stereo not drawn) [ID 846], the inhibition at 0.3 µM was more than 76% and the concentration for half-maximal inhibition (IC50) was determined as 162 nM.

Take `CCOC(=O)N1CCC(n2ccc3c(NC(=O)CC4C[C@@H]5CC[C@H]4C5)cccc3c2=O)CC1` (stereo partly drawn) [ID 795]: the inhibition at 0.1 µM was 0 to 25%.

As to `CCOC(=O)N1CCC(n2ccc3c(NC(=O)c4ccc(OC)cc4C)cccc3c2=O)CC1` [ID 749], the inhibition at 0.1 µM fell in the range of 0 to 25%.

With `O=C(Cc1ccc(F)c(Cl)c1)Nc1cccc2c(=O)n(C3CC3)ccc12` [ID 881], the inhibition at 0.3 µM was more than 76% and the IC50 came to 4.32 nM.

Regarding `Cc1ncccc1-n1ccc2c(NC(=O)[C@H](C)c3ccc(Cl)cc3)cccc2c1=O` [ID 863], the inhibition at 0.3 µM is more than 76% and the IC50 stood at 43 nM.

In the case of `CCOC(=O)N1CCC(n2ccc3c(NC(=O)Cc4ccc(OC)cc4OC)cccc3c2=O)CC1` [ID 804], the inhibition at 0.1 µM is 0 to 25%.

With `Cc1ncccc1-n1ccc2c(NC(=O)[C@@H](C)c3ccc(Cl)cc3)cccc2c1=O` [ID 864], the inhibition at 0.3 µM was more than 76% and the IC50 was found to be 111 nM.

As for `CCOC(=O)N1CCC(n2ccc3c(NC(=O)[C@H]4CC[C@H](C)CC4)cccc3c2=O)CC1` [ID 750], the inhibition at 0.1 µM was 0 to 25%.

Consider `CCOC(=O)N1CCC(n2ccc3c(NC(=O)c4ccc(OC)c(C)c4)cccc3c2=O)CC1` [ID 809], for which the inhibition at 0.1 µM lay within 0 to 25%.

In the case of `CCOC(=O)N1CCC(n2ccc3c(NC(=O)c4ccc(OCC)cc4O)cccc3c2=O)CC1` [ID 748], the inhibition at 0.1 µM fell in the range of 0 to 25%.

With `CCOC(=O)N1CCC(n2ccc3c(NC(=O)c4ccc(Cl)cc4C)cccc3c2=O)CC1` [ID 794], the inhibition at 0.1 µM fell in the range of 0 to 25%.

For the molecule `CCOC(=O)N1CCC(n2ccc3c(NC(=O)c4ccc(C)c(Cl)c4)cccc3c2=O)CC1` [ID 793], the inhibition at 0.1 µM lay within 0 to 25%.

For the molecule `O=C(Cc1ccc(C(F)(F)F)c(F)c1)Nc1cccc2c(=O)n(C3CCC3)ccc12` [ID 892], the inhibition at 0.3 µM was more than 76% and the IC50 stood at 22.1 nM.

Take `COc1ccccc1CCC(=O)Nc1cccc2c(=O)n(-c3cc(C)on3)ccc12` [ID 724]: the inhibition at 0.1 µM fell in the range of 0 to 25%.

In the case of `C[C@H](C(=O)Nc1cccc2c(=O)n(C3CC3)ccc12)c1ccc(Cl)cc1` [ID 894], the inhibition at 0.3 µM is more than 76% and the IC50 was determined as 31.9 nM.

As for `Cc1ncccc1-n1ccc2c(NC(=O)Cc3ccc(Cl)cc3F)cccc2c1=O` [ID 859], the inhibition at 0.3 µM was more than 76% and the IC50 is 50.1 nM.

With `Cc1ccc2c(=O)n([C@H]3CCNC3)ccc2c1NC(=O)Cc1ccc(C(F)(F)F)c(F)c1` [ID 900], the inhibition at 0.3 µM was more than 76% and the IC50 was determined as 40.2 nM.

With `CCOC(=O)N1CCC(n2ccc3c(NC(=O)Cc4ccccc4F)cccc3c2=O)CC1` [ID 777], the inhibition at 0.1 µM lay within 0 to 25%.

As to `CCOC(=O)N1CCC(n2ccc3c(NC(=O)CCc4ccc5c(c4)OCO5)cccc3c2=O)CC1` [ID 759], the inhibition at 0.1 µM fell in the range of 0 to 25%.

Consider `Cc1cc(-n2ccc3c(NC(=O)Cc4ccccc4F)cccc3c2=O)no1` [ID 726], for which the inhibition at 0.1 µM was in the range of 0 to 25%.

Turning to `CCOC(=O)N1CCC(n2ccc3c(NC(=O)Cc4ccc5c(c4)OCO5)cccc3c2=O)CC1` [ID 790], the inhibition at 0.1 µM lay in the range of 0 to 25%.

With `COc1ccc(C(=O)Nc2cccc3c(=O)n(-c4cc(C)on4)ccc23)cc1C` [ID 744], the inhibition at 0.1 µM was 0 to 25%.

For the molecule `CCOC(=O)N1CCC(n2ccc3c(NC(=O)c4ccccc4C)cccc3c2=O)CC1` [ID 764], the inhibition at 0.1 µM lay within 0 to 25%.

Consider `CCOC(=O)N1CCC(n2ccc3c(NC(=O)c4cc(OC)cc(OC)c4)cccc3c2=O)CC1` [ID 769], for which the inhibition at 0.1 µM lay within 26 to 50%.

For `CCOC(=O)N1CCC(n2ccc3c(NC(=O)c4cccc(C)c4)cccc3c2=O)CC1` [ID 770], the inhibition at 0.1 µM fell in the range of 0 to 25%.

Take `CC(C(=O)Nc1cccc2c(=O)n(-c3cc[nH]n3)ccc12)c1ccc(Cl)c(C(F)(F)F)c1` (stereo not drawn) [ID 839]: the inhibition at 0.3 µM is more than 76% and the IC50 amounted to 14.1 nM.

Regarding `CCOC(=O)N1CCC(n2ccc3c(NC(=O)Cc4cccc(OC)c4)cccc3c2=O)CC1` [ID 782], the inhibition at 0.1 µM was 0 to 25%.

As to `CC(C(=O)Nc1cccc2c(=O)n(C3CCNC3)ccc12)c1ccc(Cl)c(Cl)c1` (stereo not drawn) [ID 831], the inhibition at 0.3 µM lay within 51 to 75% and the IC50 was determined as 154 nM.

As to `Cc1ccc(C)c(C(=O)Nc2cccc3c(=O)n(-c4cc(C)on4)ccc23)c1` [ID 722], the inhibition at 0.1 µM was 26 to 50%.

On to `O=C(Cc1ccc(Cl)c(Cl)c1)Nc1cccc2c(=O)n(C3CCNCC3)ccc12` [ID 816], for which the inhibition at 0.3 µM lay in the range of 26 to 50% and the IC50 was 305 nM.

For `CCOC(=O)N1CCC(n2ccc3c(NC(=O)c4cc(C)c(OC)c(C)c4)cccc3c2=O)CC1` [ID 792], the inhibition at 0.1 µM lay within 0 to 25%.

As for `O=C(Cc1ccc(C(F)(F)F)cc1F)Nc1cccc2c(=O)n(C3CCC3)ccc12` [ID 887], the inhibition at 0.3 µM was more than 76% and the IC50 stood at 28.5 nM.

On to `CCOC(=O)N1CCC(n2ccc3c(NC(=O)CCCc4ccccc4)cccc3c2=O)CC1` [ID 788], for which the inhibition at 0.1 µM lay within 0 to 25%.

As to `CCOC(=O)N1CCC(n2ccc3c(NC(=O)c4ccccc4Cl)cccc3c2=O)CC1` [ID 761], the inhibition at 0.1 µM fell in the range of 0 to 25%.

Turning to `CCOC(=O)N1CCC(n2ccc3c(NC(=O)Cc4ccc(OC)c(C)c4)cccc3c2=O)CC1` [ID 806], the inhibition at 0.1 µM lay within 0 to 25%.

In the case of `CCOC(=O)N1CCC(n2ccc3c(NC(=O)Cc4cc(C)ccc4C)cccc3c2=O)CC1` [ID 755], the inhibition at 0.1 µM lay within 0 to 25%.

On to `COc1cccc(CC(=O)Nc2cccc3c(=O)n(-c4cc(C)on4)ccc23)c1` [ID 730], for which the inhibition at 0.1 µM fell in the range of 0 to 25%.

For `CCOC(=O)N1CCC(n2ccc3c(NC(=O)c4ccc(OC)c(Cl)c4)cccc3c2=O)CC1` [ID 756], the inhibition at 0.1 µM lay in the range of 0 to 25%.

On to `Cc1cc(-n2ccc3c(NC(=O)c4cccc5c4OCCO5)cccc3c2=O)no1` [ID 736], for which the inhibition at 0.1 µM is 0 to 25%.

In the case of `Cc1ncccc1-n1ccc2c(NC(=O)Cc3ccc(C(F)(F)F)cc3C(F)(F)F)cccc2c1=O` [ID 868], the inhibition at 0.3 µM was more than 76% and the IC50 stood at 68.7 nM.

For `CCOC(=O)N1CCC(n2ccc3c(NC(=O)Cc4ccccc4OC)cccc3c2=O)CC1` [ID 779], the inhibition at 0.1 µM lay in the range of 0 to 25%.

For `O=C(CC12CC3CC(CC(C3)C1)C2)Nc1cccc2c(=O)n(-c3ccc(N4CCOCC4)nc3)ccc12` [ID 709], the inhibition at 0.3 µM is more than 76% and the IC50 worked out at 25.6 nM.

On to `CCOC(=O)N1CCC(n2ccc3c(NC(=O)CCc4ccccc4C)cccc3c2=O)CC1` [ID 751], for which the inhibition at 0.1 µM was in the range of 0 to 25%.

For the origin of these results see patent US20090298825A1, “Bicycloheteroaryl Compounds as P2x7 Modulators and Uses Thereof” (priority 2006, published 2009).
